Data taken from patent US10246462B2, “Chemokine receptor modulators and uses thereof” (FLX Bio, Inc., priority 2016, dated 2019).
Structures can show the parent of a compound that is named as a salt.

Target: CCR4 (Homo sapiens (Human), UniProt P51679)
Assay: Calcium mobilization (Ca Flux) assay
Format: cell-based
Method: Calcium Mobilization Assay. Calcium mobilization experiments may be performed by labeling the human T-cell line CEM with […] dye (45 min at room temperature), washing with PBS, and re-suspending into flux buffer (HBSS with 1% FBS).

CCR4, sequence (P51679 whole entry): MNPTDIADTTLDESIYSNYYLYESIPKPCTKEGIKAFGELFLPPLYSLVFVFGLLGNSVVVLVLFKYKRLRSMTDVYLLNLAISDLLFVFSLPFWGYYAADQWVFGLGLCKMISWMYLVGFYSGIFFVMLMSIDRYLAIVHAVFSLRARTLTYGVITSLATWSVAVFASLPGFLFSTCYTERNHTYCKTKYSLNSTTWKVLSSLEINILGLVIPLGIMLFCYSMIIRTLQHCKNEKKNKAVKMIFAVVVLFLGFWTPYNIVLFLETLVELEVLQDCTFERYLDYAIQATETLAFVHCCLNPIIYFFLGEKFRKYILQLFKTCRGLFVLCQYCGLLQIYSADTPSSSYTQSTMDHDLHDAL

`Cc1nn([C@H](C)c2ccc(Cl)cc2Cl)c2nc(N3CC[C@@H](N4CCC[C@H]4CCS(N)(=O)=O)[C@@H](C)C3)cnc12` [Example 53, 2-((S)-1-((3S,4R)-1-(1-((R)-1-(2,4-Dichlorophenyl)ethyl)-3-methyl-1H-pyrazolo[3,4-b]pyrazin-6-yl)-3-methylpiperidin-4-yl)pyrrolidin-2-yl)ethane-1-sulfonamide hydrochloride] gave an IC50 of 100 to 500 nM.

In the case of `C[C@@H]1CC(c2cnc3c(C#N)nn([C@H](C)c4ccc(Cl)cc4Cl)c3n2)=CCC1N1CCC[C@H]1C` (stereo partly drawn) [Example 83], the IC50 is reported as < 100 nM.

For `CC1CC(c2cnc3c(C(F)(F)F)nn([C@H](C)c4ccc(Cl)cc4Cl)c3n2)=CCC1N1CCC[C@H]1CO` (stereo partly drawn) [Example 89], the IC50 was 100 to 500 nM.

In the case of `C[C@@H]1CN(c2cnc3c(C#N)nn([C@H](C)c4ccc(Cl)cc4F)c3n2)CC[C@@H]1N1CCC[C@H]1CCC(=O)O` [Example 90, 3-((S)-1-((3R,4S)-1-(1-((R)-1-(4-chloro-2-fluorophenyl)ethyl)-3-cyano-1H-pyrazolo[3,4-b]pyrazin-6-yl)-3-methylpiperidin-4-yl)pyrrolidin-2-yl)propanoic acid hydrochloric acid], the IC50 is reported as < 100 nM.

Work on `CC(c1ccc(Cl)cc1Cl)n1nc(C(N)=O)c2ncc(N3CCC(N4CCCCC4)C(CO)C3)nc21` (stereo not drawn) [Example 27, 1-(1-(2,4-Dichlorophenyl)ethyl)-6-(3′-(hydroxymethyl)-[1,4′-bipiperidin]-1′-yl)-1H-pyrazolo[3,4-b]pyrazine-3-carboxamide hydrochloride] yielded an IC50 of 100 to 500 nM.

`Cc1nn([C@H](C)c2ccc(Cl)cc2Cl)c2nc(N3CC[C@H](N4CCC[C@H]4CCC(N)=O)[C@H](C)C3)cnc12` [Example 44, 3-((S)-1-((3R,4S)-1-(1-((R)-1-(2,4-Dichlorophenyl)ethyl)-3-methyl-1H-pyrazolo[3,4-b]pyrazin-6-yl)-3-methylpiperidin-4-yl)pyrrolidin-2-yl)propanamide hydrochloride] was tested, and the IC50 was < 100 nM.

`Cc1nn([C@H](C)c2ccc(Cl)cc2Cl)c2nc(N3CC[C@H](N4CCC[C@H]4CCS(N)(=O)=O)[C@H](C)C3)cnc12` [Example 52, 2-((S)-1-((3R,4S)-1-(1-((R)-1-(2,4-Dichlorophenyl)ethyl)-3-methyl-1H-pyrazolo[3,4-b]pyrazin-6-yl)-3-methylpiperidin-4-yl)pyrrolidin-2-yl)ethane-1-sulfonamide hydrochloride] was tested, and the IC50 was < 100 nM.

`Cc1nn([C@H](C)c2ccc(Cl)cc2Cl)c2nc(N3CC[C@H](N4CC=CC4)[C@H](C)C3)cnc12` [Example 17, 1-((R)-1-(2,4-Dichlorophenyl)ethyl)-6-((3R,4S)-4-(2,5-dihydro-1H-pyrrol-1-yl)-3-methylpiperidin-1-yl)-3-methyl-1H-pyrazolo[3,4-b]pyrazine hydrochloride] was tested, and the IC50 was 100 to 500 nM.

`Cc1nn([C@H](C)c2ccc(Cl)cc2Cl)c2nc(N3CCC(N4CCC[C@H]4CC(F)(F)C(=O)O)C(C)C3)cnc12` (stereo partly drawn) [Example 58, 3-((2S)-1-(1-(1-((R)-1-(2,4-Dichlorophenyl)ethyl)-3-methyl-1H-pyrazolo[3,4-b]pyrazin-6-yl)-3-methylpiperidin-4-yl)pyrrolidin-2-yl)-2,2-difluoropropanoic acid 2,2,2-trifluoroacetate] was tested, and the IC50 was > 500 nM.

`Cc1nn([C@H](C)c2ccc(Cl)cc2Cl)c2nc(C3=CC[C@H](N4CCC[C@H]4C(N)=O)[C@H](C)C3)cnc12` [Example 86, (S)-1-((1S,6R)-4-(1-((R)-1-(2,4-Dichlorophenyl)ethyl)-3-methyl-1H-pyrazolo[3,4-b]pyrazin-6-yl)-6-methylcyclohex-3-en-1-yl)pyrrolidine-2-carboxamide hydrochloride] showed an IC50 of 100 to 500 nM.

For `CC1CN(c2cnc3c(C(F)(F)F)nn(C(C)c4ccc(Cl)cc4Cl)c3n2)CCC1N1CCCCC1` (stereo not drawn) [Example 10, 1-(1-(2,4-Dichlorophenyl)ethyl)-6-(3′-methyl-[1,4′-bipiperidin]-1′-yl)-3-(trifluoromethyl)-1H-pyrazolo[3,4-b]pyrazine hydrochloride], the IC50 was > 500 nM.

Compound `C[C@H](c1ccc(Cl)cc1Cl)n1nc(C#N)c2ncc(C3=CC[C@@H](N4CCC[C@H]4CO)[C@@H](C)C3)nc21` [Example 75, 1-((R)-1-(2,4-Dichlorophenyl)ethyl)-6-((4R,5S)-4-((S)-2-(hydroxymethyl)pyrrolidin-1-yl)-5-methylcyclohex-1-en-1-yl)-1H-pyrazolo[3,4-b]pyrazine-3-carbonitrile] has an IC50 of 100 to 500 nM.

With `COC[C@@H]1CCCN1C1CC=C(c2cnc3c(C#N)nn([C@H](C)c4ccc(Cl)cc4Cl)c3n2)CC1C` (mixture of isomers) [Example 84, 1-((R)-1-(2,4-Dichlorophenyl)ethyl)-6-(4-((S)-2-(methoxymethyl)pyrrolidin-1-yl)-5-methylcyclohex-1-en-1-yl)-1H-pyrazolo[3,4-b]pyrazine-3-carbonitrile hydrochloride] the IC50 was 100 to 500 nM.

For `Cc1nn([C@H](C)c2ccc(Cl)cc2Cl)c2nc(N3CC[C@H](N4CCC[C@H]4CCC(=O)O)[C@H](C)C3)cnc12` [Example 42, 3-((S)-1-((3R,4S)-1-(1-((R)-1-(2,4-dichlorophenyl)ethyl)-3-methyl-1H-pyrazolo[3,4-b]pyrazin-6-yl)-3-methylpiperidin-4-yl)pyrrolidin-2-yl)propanoic acid hydrochloride], the IC50 was 100 to 500 nM.

With `CCN(CC1(O)COC1)C1CC=C(c2cnc3c(C#N)nn([C@H](C)c4ccc(Cl)cc4Cl)c3n2)CC1C` (stereo partly drawn) [Example 92, 1-((R)-1-(2,4-dichlorophenyl)ethyl)-6-(4-(ethyl((3-hydroxyoxetan-3-yl)methyl)amino)-5-methylcyclohex-1-en-1-yl)-1H-pyrazolo[3,4-b]pyrazine-3-carbonitrile] the IC50 was 100 to 500 nM.

With `Cc1nn([C@H](C)c2ccc(Cl)cc2Cl)c2nc(N3CC[C@H](N4CCC[C@@H](CC(=O)O)C4)[C@H](CO)C3)cnc12` [Example 65, 2-((3S,3′R,4′S)-1′-(1-((R)-1-(2,4-Dichlorophenyl)ethyl)-3-methyl-1H-pyrazolo[3,4-b]pyrazin-6-yl)-3′-(hydroxymethyl)-[1,4′-bipiperidin]-3-yl)acetic acid hydrochloride] the IC50 was 100 to 500 nM.

With `Cc1nn([C@H](C)c2ccc(Cl)cc2Cl)c2nc(N3CCC(N4CCC[C@H]4CC(F)C(=O)O)C(C)C3)cnc12` (single isomer, unassigned) [Example 56] the IC50 was 100 to 500 nM.

In the case of `C[C@@H]1CC(c2cnc3c(C#N)nn([C@H](C)c4ccc(Cl)cc4Cl)c3n2)=CC[C@@H]1N1CCC[C@H]1CO` [Example 76, 1-((R)-1-(2,4-Dichlorophenyl)ethyl)-6-((4S,5R)-4-((S)-2-(hydroxymethyl)pyrrolidin-1-yl)-5-methylcyclohex-1-en-1-yl)-1H-pyrazolo[3,4-b]pyrazine-3-carbonitrile], the IC50 is reported as < 100 nM.

For `Cc1nn([C@H](C)c2ccc(Cl)cc2Cl)c2nc(N3CC[C@H](N4CCC[C@H]4C(C)(C)O)[C@H](C)C3)cnc12` [Example 36, 2-((S)-1-((3R,4S)-1-(1-((R)-1-(2,4-Dichlorophenyl)ethyl)-3-methyl-1H-pyrazolo[3,4-b]pyrazin-6-yl)-3-methylpiperidin-4-yl)pyrrolidin-2-yl)propan-2-ol hydrochloride], the IC50 was 100 to 500 nM.

Work on `Cc1nn([C@H](C)c2ccc(Cl)cc2Cl)c2nc(N3CCC(N4CCC[C@H]4CCC(O)C(F)(F)F)C(C)C3)cnc12` (single isomer, unassigned) [Example 47, hydrochloride] yielded an IC50 of 100 to 500 nM.

With `Cc1nn([C@H](C)c2ccc(Cl)cc2Cl)c2nc(C3=CC[C@H](N4CCC[C@H]4CCC(=O)O)[C@H](C)C3)cnc12` [Example 71, 3-((S)-1-((1S,6R)-4-(1-((R)-1-(2,4-Dichlorophenyl)ethyl)-3-methyl-1H-pyrazolo[3,4-b]pyrazin-6-yl)-6-methylcyclohex-3-en-1-yl)pyrrolidin-2-yl)propanoic acid hydrochloride] the IC50 was < 100 nM.

`CCOC(=O)c1nn(Cc2ccc(Cl)cc2Cl)c2nc(N3CCC(N4CCCCC4)C(C)C3)cnc12` (stereo not drawn) [Example 11, Ethyl 1-(2,4-dichlorobenzyl)-6-(3′-methyl-[1,4′-bipiperidin]-1′-yl)-1H-pyrazolo[3,4-b]pyrazine-3-carboxylate hydrochloride] gave an IC50 of 100 to 500 nM.

With `CC(c1ccc(Cl)cc1Cl)n1nc(C#N)c2ncc(N3CCC(N4CCCCC4)C(F)C3)nc21` (stereo not drawn) [Example 26, 1-(1-(2,4-Dichlorophenyl)ethyl)-6-(3′-fluoro-[1,4′-bipiperidin]-1′-yl)-1H-pyrazolo[3,4-b]pyrazine-3-carbonitrile 2,2,2-trifluoroacetate] the IC50 was > 500 nM.

For `Cc1nn([C@H](C)c2ccc(Cl)cc2Cl)c2nc(N3CC[C@H](N4CCC[C@H]4C(=O)O)[C@H](C)C3)cnc12` [Example 34, ((3R,4S)-1-(1-((R)-1-(2,4-Dichlorophenyl)ethyl)-3-methyl-1H-pyrazolo[3,4-b]pyrazin-6-yl)-3-methylpiperidin-4-yl)-L-proline 2,2,2-trifluoroacetate], the IC50 was > 500 nM.

With `Cc1nn([C@H](C)c2ccc(Cl)cc2Cl)c2nc(N3CCC(N4CCC[C@H]4CCC(O)C(F)(F)F)C(C)C3)cnc12` (single isomer, unassigned) [Example 46, hydrochloride] the IC50 was 100 to 500 nM.

Compound `Cc1nn([C@H](C)c2ccc(Cl)cc2F)c2nc(N3CC[C@H](N4CCC[C@H]4CCC(=O)O)[C@H](C)C3)cnc12` [Example 49, 3-((S)-1-((3R,4S)-1-(1-((R)-1-(4-Chloro-2-fluorophenyl)ethyl)-3-methyl-1H-pyrazolo[3,4-b]pyrazin-6-yl)-3-methylpiperidin-4-yl)pyrrolidin-2-yl)propanoic acid 2,2,2-trifluoroacetate] has an IC50 of 100 to 500 nM.

For `Cc1nn([C@H](C)c2ccc(Cl)cc2Cl)c2nc(N3CCC(N4CCC[C@H]4C4CC4C(=O)O)C(C)C3)cnc12` (mixture of isomers) [Example 54, 2-((2S)-1-(1-(1-((R)-1-(2,4-Dichlorophenyl)ethyl)-3-methyl-1H-pyrazolo[3,4-b]pyrazin-6-yl)-3-methylpiperidin-4-yl)pyrrolidin-2-yl)cyclopropane-1-carboxylic acid], the IC50 was > 500 nM.
